Numbers after ± are expanded uncertainties.
Experiment: xn = mol fraction of the nth substance listed
Settings: 101 kPa, Liquid

CC1COC(=O)O1 (configuration not stated) [4-methyl-1,3-dioxolan-2-one] + Cc1ccc(C)cc1
Settings | mass density [kg/m3]
293.15 K, x2 = 0 | 1200.25 ± 40
293.15 K, x2 = 0.0487 | 1177.59 ± 40
293.15 K, x2 = 0.1238 | 1144.26 ± 40
293.15 K, x2 = 0.1793 | 1120.81 ± 40
293.15 K, x2 = 0.2482 | 1093.01 ± 40
293.15 K, x2 = 0.3125 | 1068.33 ± 40
293.15 K, x2 = 0.381 | 1043.26 ± 40
293.15 K, x2 = 0.4371 | 1023.64 ± 40
293.15 K, x2 = 0.4972 | 1003.44 ± 40
293.15 K, x2 = 0.5622 | 982.49 ± 40
293.15 K, x2 = 0.6329 | 960.71 ± 40
293.15 K, x2 = 0.6938 | 942.7 ± 40
293.15 K, x2 = 0.7421 | 928.88 ± 40
293.15 K, x2 = 0.8023 | 912.2 ± 40
293.15 K, x2 = 0.8592 | 896.93 ± 40
293.15 K, x2 = 0.9247 | 879.91 ± 40
303.15 K, x2 = 0 | 1180.56 ± 40
303.15 K, x2 = 0.0523 | 1157.1 ± 40
303.15 K, x2 = 0.123 | 1126.84 ± 40
303.15 K, x2 = 0.1836 | 1102.14 ± 40
303.15 K, x2 = 0.2381 | 1080.85 ± 40
303.15 K, x2 = 0.3263 | 1048.15 ± 40
303.15 K, x2 = 0.3741 | 1031.29 ± 40
303.15 K, x2 = 0.4233 | 1014.5 ± 40
303.15 K, x2 = 0.4794 | 996.06 ± 40
303.15 K, x2 = 0.5573 | 971.57 ± 40
303.15 K, x2 = 0.6233 | 951.77 ± 40
303.15 K, x2 = 0.6843 | 934.2 ± 40
303.15 K, x2 = 0.7538 | 914.94 ± 40
303.15 K, x2 = 0.8148 | 898.66 ± 40
303.15 K, x2 = 0.8731 | 883.59 ± 40
303.15 K, x2 = 0.9362 | 867.79 ± 40
313.15 K, x2 = 0 | 1161.28 ± 40
313.15 K, x2 = 0.0543 | 1137.8 ± 40
313.15 K, x2 = 0.1173 | 1111.72 ± 40
313.15 K, x2 = 0.1598 | 1094.8 ± 40
313.15 K, x2 = 0.2294 | 1068.21 ± 40
313.15 K, x2 = 0.2849 | 1047.95 ± 40
313.15 K, x2 = 0.3598 | 1021.87 ± 40
313.15 K, x2 = 0.4381 | 996.03 ± 40
313.15 K, x2 = 0.482 | 982.14 ± 40
313.15 K, x2 = 0.5359 | 965.64 ± 40
313.15 K, x2 = 0.6021 | 946.14 ± 40
313.15 K, x2 = 0.6721 | 926.39 ± 40
313.15 K, x2 = 0.7359 | 909.11 ± 40
313.15 K, x2 = 0.8243 | 886.17 ± 40
313.15 K, x2 = 0.8817 | 871.85 ± 40
313.15 K, x2 = 0.9274 | 860.74 ± 40
323.15 K, x2 = 0 | 1142.43 ± 40
323.15 K, x2 = 0.0623 | 1116.49 ± 40
323.15 K, x2 = 0.1246 | 1091.71 ± 40
323.15 K, x2 = 0.1822 | 1069.79 ± 40
323.15 K, x2 = 0.2483 | 1045.74 ± 40
323.15 K, x2 = 0.3193 | 1021.16 ± 40
323.15 K, x2 = 0.3719 | 1003.72 ± 40
323.15 K, x2 = 0.4389 | 982.42 ± 40
323.15 K, x2 = 0.5032 | 962.87 ± 40
323.15 K, x2 = 0.5579 | 946.88 ± 40
323.15 K, x2 = 0.6234 | 928.45 ± 40
323.15 K, x2 = 0.6972 | 908.56 ± 40
323.15 K, x2 = 0.7529 | 894.11 ± 40
323.15 K, x2 = 0.8137 | 878.84 ± 40
323.15 K, x2 = 0.8724 | 864.57 ± 40
323.15 K, x2 = 0.9378 | 849.15 ± 40
333.15 K, x2 = 0 | 1123.99 ± 40
333.15 K, x2 = 0.0598 | 1099.91 ± 40
333.15 K, x2 = 0.1387 | 1069.71 ± 40
333.15 K, x2 = 0.1738 | 1056.82 ± 40
333.15 K, x2 = 0.2384 | 1033.93 ± 40
333.15 K, x2 = 0.3283 | 1003.8 ± 40
333.15 K, x2 = 0.3918 | 983.64 ± 40
333.15 K, x2 = 0.452 | 965.32 ± 40
333.15 K, x2 = 0.5138 | 947.26 ± 40
333.15 K, x2 = 0.5821 | 928.14 ± 40
333.15 K, x2 = 0.6518 | 909.44 ± 40
333.15 K, x2 = 0.7139 | 893.44 ± 40
333.15 K, x2 = 0.783 | 876.29 ± 40
333.15 K, x2 = 0.8346 | 863.9 ± 40
333.15 K, x2 = 0.8814 | 852.95 ± 40
333.15 K, x2 = 0.9471 | 837.99 ± 40
343.15 K, x2 = 0 | 1105.98 ± 40
343.15 K, x2 = 0.0643 | 1081 ± 40
343.15 K, x2 = 0.1241 | 1058.78 ± 40
343.15 K, x2 = 0.1839 | 1037.51 ± 40
343.15 K, x2 = 0.245 | 1016.69 ± 40
343.15 K, x2 = 0.3183 | 992.89 ± 40
343.15 K, x2 = 0.3891 | 971.03 ± 40
343.15 K, x2 = 0.4498 | 953.11 ± 40
343.15 K, x2 = 0.5021 | 938.24 ± 40
343.15 K, x2 = 0.5721 | 919.11 ± 40
343.15 K, x2 = 0.6592 | 896.46 ± 40
343.15 K, x2 = 0.7134 | 882.94 ± 40
343.15 K, x2 = 0.7635 | 870.82 ± 40
343.15 K, x2 = 0.8247 | 856.45 ± 40
343.15 K, x2 = 0.8848 | 842.78 ± 40
343.15 K, x2 = 0.9522 | 827.92 ± 40
353.15 K, x2 = 0 | 1088.38 ± 40
353.15 K, x2 = 0.0505 | 1069.32 ± 40
353.15 K, x2 = 0.1184 | 1044.77 ± 40
353.15 K, x2 = 0.1739 | 1025.56 ± 40
353.15 K, x2 = 0.2289 | 1007.26 ± 40
353.15 K, x2 = 0.2847 | 989.41 ± 40
353.15 K, x2 = 0.3571 | 967.26 ± 40
353.15 K, x2 = 0.4248 | 947.53 ± 40
353.15 K, x2 = 0.4972 | 927.39 ± 40
353.15 K, x2 = 0.5539 | 912.26 ± 40
353.15 K, x2 = 0.6198 | 895.34 ± 40
353.15 K, x2 = 0.674 | 881.93 ± 40
353.15 K, x2 = 0.7354 | 867.23 ± 40
353.15 K, x2 = 0.7842 | 855.91 ± 40
353.15 K, x2 = 0.8527 | 840.5 ± 40
353.15 K, x2 = 0.9247 | 824.87 ± 40
